The results in this text go back to patent US7566712B2, “Biaryl piperazinyl-pyridine analogues” (Neurogen Corporation, priority 2003, dated 2009).

The assay concerns the target T1, human capsaicin receptor (Homo sapiens, UniProt Q8NER1).
T1 construct: pBK-CMV expression construct encoding the full length human capsaicin receptor; expressed in transfected cells
Briefly: Calcium mobilization assay, determination of antagonist activity (Example 6). It is filed as cell-based. As to conditions: determined as described in Example 6 (calcium mobilization, antagonist activity); Table II. Put shortly:
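Antagonism measured as inhibition of capsaicin-evoked (final concentration = EC50, from an 8-point 1 nM–3 μM curve) Fluo-3 calcium signal in stable hVR1-HEK293 cells. Test compounds at 1–5 μM final, 0.5–6 h dark preincubation at room temperature. IC50 = concentration giving 50% reduction versus agonist-only response.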
(Calcium assays in cells follow changes in intracellular calcium, usually with a dye or a luminescent sensor.)

T1 sequence (Q8NER1 whole entry): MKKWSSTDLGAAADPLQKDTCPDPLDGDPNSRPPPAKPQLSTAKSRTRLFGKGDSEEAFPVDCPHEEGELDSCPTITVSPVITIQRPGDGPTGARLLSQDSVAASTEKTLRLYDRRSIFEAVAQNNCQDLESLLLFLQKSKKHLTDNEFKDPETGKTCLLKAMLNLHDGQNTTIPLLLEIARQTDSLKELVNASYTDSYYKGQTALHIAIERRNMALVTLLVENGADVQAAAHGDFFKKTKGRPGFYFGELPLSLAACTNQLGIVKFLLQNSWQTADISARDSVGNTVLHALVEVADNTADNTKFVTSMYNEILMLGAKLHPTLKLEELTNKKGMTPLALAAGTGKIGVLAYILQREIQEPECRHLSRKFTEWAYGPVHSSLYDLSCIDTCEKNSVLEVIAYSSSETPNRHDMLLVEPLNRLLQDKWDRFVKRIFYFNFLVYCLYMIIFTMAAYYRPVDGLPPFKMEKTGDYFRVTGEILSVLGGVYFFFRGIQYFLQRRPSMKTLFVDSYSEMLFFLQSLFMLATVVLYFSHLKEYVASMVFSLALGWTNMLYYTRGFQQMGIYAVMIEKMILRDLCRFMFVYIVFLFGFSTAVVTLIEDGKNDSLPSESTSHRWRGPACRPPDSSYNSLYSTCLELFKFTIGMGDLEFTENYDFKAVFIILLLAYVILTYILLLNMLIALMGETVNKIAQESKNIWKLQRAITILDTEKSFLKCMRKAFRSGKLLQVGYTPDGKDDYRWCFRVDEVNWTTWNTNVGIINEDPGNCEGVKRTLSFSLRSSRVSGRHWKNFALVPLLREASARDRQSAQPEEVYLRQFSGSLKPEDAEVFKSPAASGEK

By IC50 is commonly meant the concentration needed to halve the response being measured. Consider `O=C1CN(c2nc(-c3ccc(F)c(Cl)c3)cc(N3CCN(c4ncccc4C(F)(F)F)CC3)n2)CCN1` [Example 654, 4-(4-(3-chloro-4-fluorophenyl)-6-{4-[3-(trifluoromethyl)pyridin-2-yl]piperazin-1-yl}pyrimidin-2-yl)piperazin-2-one], for which the IC50 is at most 1000 nM. The value for `CS(=O)(=O)C1CCN(c2nc(-c3ccc(F)c(Cl)c3)cc(N3CCN(c4ncccc4C(F)(F)F)CC3)n2)CC1` [Example 655, 4-(3-chloro-4-fluorophenyl)-2-[4-(methylsulfonyl)piperidin-1-yl]-6-{4-[3-(trifluoromethyl)pyridin-2-yl]piperazin-1-yl}pyrimidine] was at most 1000 nM; that for `Fc1ccc(-c2cc(N3CCN(c4ncccc4C(F)(F)F)CC3)nc(-c3ncc[nH]3)n2)cc1Cl` [Example 656, 4-(3-chloro-4-fluorophenyl)-2-(1H-imidazol-2-yl)-6-{4-[3-(trifluoromethyl)pyridin-2-yl]piperazin-1-yl}pyrimidine] was at most 1000 nM. In the case of `CC(=N)N1CCN(c2nc(-c3ccc(F)c(C)c3)cc(N3CCN(c4ncccc4C(F)(F)F)CC3)n2)CC1` [Example 657, 1-[4-(4-(4-fluoro-3-methylphenyl)-6-{4-[3-(trifluoromethyl)pyridin-2-yl]piperazin-1-yl}pyrimidin-2-yl)piperazin-1-yl]ethanimine], the IC50 is at most 1000 nM. The value for `CCC(CC)Oc1nc(-c2ccc(F)c(Cl)c2)cc(N2CCN(c3ncccc3C(F)(F)F)CC2)n1` [Example 658, 4-(3-chloro-4-fluorophenyl)-2-(1-ethylpropoxy)-6-{4-[3-(trifluoromethyl)pyridin-2-yl]piperazin-1-yl}pyrimidine] was at most 1000 nM; that for `O=C1CN(c2cc(-c3ccc(F)c(Cl)c3)nc(N3CCOCC3)n2)CCN1c1ccccn1` [Example 659, 4-[6-(3-chloro-4-fluorophenyl)-2-morpholin-4-ylpyrimidin-4-yl]-1-pyridin-2-ylpiperazin-2-one] was at most 1000 nM. The value for `CC(C)N1CC=C(c2nc(-c3ccc(F)c(Cl)c3)cc(N3CCN(c4ncccc4C(F)(F)F)CC3)n2)CC1` [Example 660, 4-(3-chloro-4-fluorophenyl)-2-(1-isopropyl-1,2,3,6-tetrahydropyridin-4-yl)-6-{4-[3-(trifluoromethyl)pyridin-2-yl]piperazin-1-yl}pyrimidine] was at most 1000 nM. The value for `Cc1cccnc1N1CCN(c2cc(-c3ccc(F)c(Cl)c3)nc(N3CCOCC3)n2)CC1=O` [Example 661, 4-[6-(3-chloro-4-fluorophenyl)-2-morpholin-4-ylpyrimidin-4-yl]-1-(3-methylpyridin-2-yl)piperazin-2-one] was at most 1000 nM; that for `Cn1ccnc1-c1nc(-c2ccc(F)c(Cl)c2)cc(N2CCN(c3ncccc3C(F)(F)F)CC2)n1` [Example 662, 4-(3-chloro-4-fluorophenyl)-2-(1-methyl-1H-imidazol-2-yl)-6-{4-[3-(trifluoromethyl)pyridin-2-yl]piperazin-1-yl}pyrimidine] was at most 1000 nM. Regarding `CC(=N)N1CCN(c2nc(-c3ccc(F)c(Cl)c3)cc(N3CCN(c4ncccc4C(F)(F)F)CC3)n2)CC1` [Example 663, 1-[4-(4-(3-chloro-4-fluorophenyl)-6-{4-[3-(trifluoromethyl)pyridin-2-yl]piperazin-1-yl}pyrimidin-2-yl)piperazin-1-yl]ethanimine], the IC50 was at most 1000 nM. The value for `Fc1ccc(-c2cc(N3CCN(c4ncccc4C(F)(F)F)CC3)nc(N3CCC[C@H]3CN3CCCC3)n2)cc1Cl` [Example 664, 4-(3-chloro-4-fluorophenyl)-2-[(2S)-2-(pyrrolidin-1-ylmethyl)pyrrolidin-1-yl]-6-{4-[3-(trifluoromethyl)pyridin-2-yl]piperazin-1-yl}pyrimidine] was at most 1000 nM; that for `Fc1ccc(-c2cc(N3CCN(c4ncccc4C(F)(F)F)CC3)nc(N3CCC(CCN4CCCC4)CC3)n2)cc1Cl` [Example 665, 4-(3-chloro-4-fluorophenyl)-2-[4-(2-pyrrolidin-1-ylethyl)piperidin-1-yl]-6-{4-[3-(trifluoromethyl)pyridin-2-yl]piperazin-1-yl}pyrimidine] was at most 1000 nM; that for `Fc1ccc(-c2cc(N3CCN(c4ncccc4C(F)(F)F)CC3)nc(N3CCC(N4CCCC4)CC3)n2)cc1Cl` [Example 666, 4-(3-chloro-4-fluorophenyl)-2-(4-pyrrolidin-1-ylpiperidin-1-yl)-6-{4-[3-(trifluoromethyl)pyridin-2-yl]piperazin-1-yl}pyrimidine] was at most 1000 nM. The value for `CCN1CCN(c2nc(-c3ccc(F)c(C)c3)cc(N3CCN(c4ncccc4C(F)(F)F)CC3)n2)CC1` [Example 667, 2-(4-ethylpiperazin-1-yl)-4-(4-fluoro-3-methylphenyl)-6-{4-[3-(trifluoromethyl)pyridin-2-yl]piperazin-1-yl}pyrimidine] was at most 1000 nM; that for `O=C1CCCN1c1nc(-c2ccc(F)c(Cl)c2)cc(N2CCN(c3ncccc3C(F)(F)F)CC2)n1` [Example 668, 1-(4-(3-chloro-4-fluorophenyl)-6-{4-[3-(trifluoromethyl)pyridin-2-yl]piperazin-1-yl}pyrimidin-2-yl)pyrrolidin-2-one] was at most 1000 nM; that for `CC1CCC(C)N1c1nc(-c2ccc(F)c(Cl)c2)cc(N2CCN(c3ncccc3C(F)(F)F)CC2)n1` (stereo not drawn) [Example 669, 4-(3-chloro-4-fluorophenyl)-2-(2,5-dimethylpyrrolidin-1-yl)-6-{4-[3-(trifluoromethyl)pyridin-2-yl]piperazin-1-yl}pyrimidine] was at most 1000 nM. The value for `[O-][n+]1ccc(-c2nc(-c3ccc(F)c(Cl)c3)cc(N3CCN(c4ncccc4C(F)(F)F)CC3)n2)cc1` [Example 670] was at most 1000 nM; that for `CC(=O)c1nc(-c2ccc(F)c(Cl)c2)cc(N2CCN(c3ncccc3C(F)(F)F)CC2)n1` [Example 671, 1-(4-(3-chloro-4-fluorophenyl)-6-{4-[3-(trifluoromethyl)pyridin-2-yl]piperazin-1-yl}pyrimidin-2-yl)ethanone] was at most 1000 nM. For the compound `CC(=O)c1nc(-c2ccc(F)c(C)c2)cc(N2CCN(c3ncccc3C(F)(F)F)CC2)n1` [Example 672, 1-(4-(4-fluoro-3-methylphenyl)-6-{4-[3-(trifluoromethyl)pyridin-2-yl]piperazin-1-yl}pyrimidin-2-yl)ethanone], the IC50 is at most 1000 nM. The value for `Fc1ccc(-c2cc(N3CCN(c4ncccc4C(F)(F)F)CC3)nc(N3CCN(c4ncccc4C(F)(F)F)CC3)n2)cc1Cl` [Example 673, 4-(3-chloro-4-fluorophenyl)-2,6-bis{4-[3-(trifluoromethyl)pyridin-2-yl]piperazin-1-yl}pyrimidine] was at most 1000 nM; that for `Cc1cc(-c2cc(N3CCN(c4ncccc4C(F)(F)F)CC3)nc(N3CCCC3)n2)ccc1F` [Example 674, 4-(4-fluoro-3-methylphenyl)-2-pyrrolidin-1-yl-6-{4-[3-(trifluoromethyl)pyridin-2-yl]piperazin-1-yl}pyrimidine] was at most 1000 nM.

For `Cc1cc(-c2cc(N3CCN(c4ncccc4C(F)(F)F)CC3)nc(N3CCCCC3)n2)ccc1F` [Example 675, 4-(4-fluoro-3-methylphenyl)-2-piperidin-1-yl-6-{4-[3-(trifluoromethyl)pyridin-2-yl]piperazin-1-yl}pyrimidine], the IC50 is at most 1000 nM. With `Cc1cc(-c2cc(N3CCN(c4ncccc4C(F)(F)F)CC3)nc(N3CCCC3C)n2)ccc1F` (stereo not drawn) [Example 676, 4-(4-fluoro-3-methylphenyl)-2-(2-methylpyrrolidin-1-yl)-6-{4-[3-(trifluoromethyl)pyridin-2-yl]piperazin-1-yl}pyrimidine], the IC50 is at most 1000 nM.

Take `Cc1cc(-c2cc(N3CCN(c4ncccc4C(F)(F)F)CC3)nc(N3C(C)CCC3C)n2)ccc1F` (stereo not drawn) [Example 677, 2-(2,5-dimethylpyrrolidin-1-yl)-4-(4-fluoro-3-methylphenyl)-6-{4-[3-(trifluoromethyl)pyridin-2-yl]piperazin-1-yl}pyrimidine]: the IC50 is at most 1000 nM. In the case of `Cc1cc(-c2cc(N3CCN(c4ncccc4C(F)(F)F)CC3)nc(N(CCO)CCO)n2)ccc1F` [Example 678], the IC50 is at most 1000 nM. `CC(=O)N(C)c1nc(-c2ccc(F)c(Cl)c2)cc(N2CCN(c3ncccc3C(F)(F)F)CC2)n1` [Example 679, N-(4-(3-chloro-4-fluorophenyl)-6-{4-[3-(trifluoromethyl)pyridin-2-yl]piperazin-1-yl}pyrimidin-2-yl)-N-methylacetamide]: the IC50 is at most 1000 nM.

As to `O=C1CCC(=O)N1c1nc(-c2ccc(F)c(Cl)c2)cc(N2CCN(c3ncccc3C(F)(F)F)CC2)n1` [Example 680, 1-(4-(3-chloro-4-fluorophenyl)-6-{4-[3-(trifluoromethyl)pyridin-2-yl]piperazin-1-yl}pyrimidin-2-yl)pyrrolidine-2,5-dione], the IC50 is at most 1000 nM.

Turning to `Cc1cc(-c2cc(N3CCN(c4ncccc4C(F)(F)F)CC3)nc(C(C)N(C)C)n2)ccc1F` (stereo not drawn) [Example 681, 1-(4-(4-fluoro-3-methylphenyl)-6-{4-[3-(trifluoromethyl)pyridin-2-yl]piperazin-1-yl}pyrimidin-2-yl)-N,N-dimethylethanamine], the IC50 is at most 1000 nM. As for `CCCN1CCN(c2nc(-c3ccc(F)c(C)c3)cc(N3CCN(c4ncccc4C(F)(F)F)CC3)n2)CC1` [Example 682, 4-(4-fluoro-3-methylphenyl)-2-(4-propylpiperazin-1-yl)-6-{4-[3-(trifluoromethyl)pyridin-2-yl]piperazin-1-yl}pyrimidine], the IC50 was at most 1000 nM.

`CC(C)n1ccnc1-c1nc(-c2ccc(F)c(Cl)c2)cc(N2CCN(c3ncccc3C(F)(F)F)CC2)n1` [Example 683, 4-(3-chloro-4-fluorophenyl)-2-(1-isopropyl-1H-imidazol-2-yl)-6-{4-[3-(trifluoromethyl)pyridin-2-yl]piperazin-1-yl}pyrim:dine]: the IC50 is at most 1000 nM.
